Source: US20230348418A1, “ISOINDOLINONE COMPOUNDS” (Monte Rosa Therapeutics, Inc., priority 2021, published 2023)

What was measured:
NCI-H1155 [1] = assay: viability of NSCLC cell line, high N-Myc (FIG. 2A); assay type: cell-based, human; conditions: compared to low N-Myc EBC-1 and NCI-H2023
Method: (§1) GSPT1 was degraded by compound 10 after six hours of treatment in high N-Myc NCI-H1155 and ABC-1 cells with a DC50 of 3 nM and 22 nM, respectively (x-axys represents […]M concentration of compound 10; y-axis represents the viability in %).

ABC-1 = assay: viability of NSCLC cell line, high N-Myc (FIG. 2A); assay type: cell-based; conditions: ABC-1, high N-Myc; compared to low N-Myc EBC-1 and NCI-H2023
Method: as §1

GSPT1 [2] = molecular target: T1, GSPT1 (Homo sapiens, UniProt P15170+Q96SW2); assay: GSPT1 degradation in NCI-H1155 cells; assay type: cell-based
T1 sequence (P15170 whole entry): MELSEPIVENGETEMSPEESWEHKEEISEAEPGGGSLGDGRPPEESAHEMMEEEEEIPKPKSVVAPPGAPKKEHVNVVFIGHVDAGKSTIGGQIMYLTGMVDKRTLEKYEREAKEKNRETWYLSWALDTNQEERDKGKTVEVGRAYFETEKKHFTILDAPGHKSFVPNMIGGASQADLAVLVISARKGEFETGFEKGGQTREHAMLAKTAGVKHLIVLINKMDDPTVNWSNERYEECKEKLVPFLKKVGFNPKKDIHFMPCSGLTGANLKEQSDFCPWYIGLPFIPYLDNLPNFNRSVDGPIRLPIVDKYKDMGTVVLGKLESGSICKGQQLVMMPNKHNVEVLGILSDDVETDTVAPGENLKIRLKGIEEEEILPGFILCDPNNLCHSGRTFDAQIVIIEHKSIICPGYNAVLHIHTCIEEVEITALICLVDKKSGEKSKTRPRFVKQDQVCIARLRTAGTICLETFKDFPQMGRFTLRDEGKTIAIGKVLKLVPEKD
T1 sequence (Q96SW2 whole entry): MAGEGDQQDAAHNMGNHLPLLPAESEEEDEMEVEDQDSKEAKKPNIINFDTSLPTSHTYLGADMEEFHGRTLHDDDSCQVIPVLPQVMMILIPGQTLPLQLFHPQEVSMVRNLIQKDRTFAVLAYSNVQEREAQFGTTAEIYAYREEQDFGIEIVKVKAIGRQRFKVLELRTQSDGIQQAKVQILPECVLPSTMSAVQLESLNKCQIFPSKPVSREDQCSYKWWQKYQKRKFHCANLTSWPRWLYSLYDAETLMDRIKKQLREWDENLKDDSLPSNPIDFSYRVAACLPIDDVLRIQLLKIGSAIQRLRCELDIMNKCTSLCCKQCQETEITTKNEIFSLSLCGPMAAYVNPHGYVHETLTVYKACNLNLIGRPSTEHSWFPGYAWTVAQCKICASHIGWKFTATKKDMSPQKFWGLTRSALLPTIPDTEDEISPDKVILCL
T1 sequence (Q16531 2-1140 partner limits assumed): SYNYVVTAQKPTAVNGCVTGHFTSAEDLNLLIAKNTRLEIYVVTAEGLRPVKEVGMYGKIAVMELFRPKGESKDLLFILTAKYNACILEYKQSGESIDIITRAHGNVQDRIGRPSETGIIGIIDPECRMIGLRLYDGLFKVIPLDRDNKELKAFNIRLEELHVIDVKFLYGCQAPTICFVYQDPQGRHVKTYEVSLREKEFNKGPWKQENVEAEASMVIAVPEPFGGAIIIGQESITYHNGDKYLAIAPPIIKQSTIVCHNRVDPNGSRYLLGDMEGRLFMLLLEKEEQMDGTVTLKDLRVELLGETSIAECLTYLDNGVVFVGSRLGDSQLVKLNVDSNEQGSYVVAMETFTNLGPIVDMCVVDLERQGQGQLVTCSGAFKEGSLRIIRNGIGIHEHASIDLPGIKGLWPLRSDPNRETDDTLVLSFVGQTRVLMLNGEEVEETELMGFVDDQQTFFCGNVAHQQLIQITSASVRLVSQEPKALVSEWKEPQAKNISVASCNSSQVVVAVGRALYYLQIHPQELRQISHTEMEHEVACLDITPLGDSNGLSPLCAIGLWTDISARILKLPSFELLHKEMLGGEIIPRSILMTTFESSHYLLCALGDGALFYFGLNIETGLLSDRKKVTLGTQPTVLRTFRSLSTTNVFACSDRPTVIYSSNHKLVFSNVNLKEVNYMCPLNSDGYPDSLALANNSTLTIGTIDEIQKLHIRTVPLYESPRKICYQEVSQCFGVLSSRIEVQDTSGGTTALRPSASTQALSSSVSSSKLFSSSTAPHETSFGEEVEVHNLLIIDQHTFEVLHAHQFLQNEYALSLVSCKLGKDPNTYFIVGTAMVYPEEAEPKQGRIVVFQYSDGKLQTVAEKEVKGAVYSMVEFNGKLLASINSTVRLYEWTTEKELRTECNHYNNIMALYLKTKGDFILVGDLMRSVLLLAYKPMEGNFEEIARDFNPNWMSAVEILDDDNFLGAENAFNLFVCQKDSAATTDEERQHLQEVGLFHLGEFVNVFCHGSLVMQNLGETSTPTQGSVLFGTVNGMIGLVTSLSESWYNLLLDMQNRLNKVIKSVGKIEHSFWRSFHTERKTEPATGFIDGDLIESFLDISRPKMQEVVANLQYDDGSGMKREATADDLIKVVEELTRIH
Method: as §1

NCI-H1155 [3] = assay: N-Myc-driven mouse xenograft model, human cell line NCI-H1155 (FIG. 3A); assay type: in vivo
GSPT1 [4] = molecular target: T2, GSPT1 (Homo sapiens, UniProt P15170); assay: GSPT1 degradation in tumors of treated mice (FIG. 3B); assay type: in vivo, mouse; conditions: all three dose levels (1 mg/kg, 3 mg/kg, 6 mg/kg), compared to vehicle control
T2 construct: GSPT1 levels in tumors were determined by western blotting 6 hours after the third dose; from tissue; host or cells: NCI-H1155 (ATCC CRL-5818) xenograft tumours in female BALB/c nude mice
T2 sequence (P15170 whole entry): as the sequence (P15170 whole entry) above
T2 sequence (Q96SW2 whole entry, further chain): as the sequence (Q96SW2 whole entry) above
T2 sequence (Q16531 2-1140 partner limits assumed): as the sequence (Q16531 2-1140 partner limits assumed) above

IKZF1 (Ikaros) = molecular target: T3, IKZF1 (Ikaros) (Homo sapiens, UniProt Q13422); assay: Western blot selectivity assay in MM1S cells: IKZF1; assay type: cell-based; set-up: key: A represents a no degradation observed at 30 μM; B represents trace degradation at 30 μM (below 20%); C represents weak degradation at 30 μM (below 50%); D represents degradation at 30 μM (>90%); E represents degradation at 3 μM (>90%); F represents degradation at 0.3 μM (>90%); conditions: MM1S cells, 0.3, 3 and 30 μM, 6 hours
T3 construct: endogenous in cells; host or cells: MM1S (ATCC CRL-2974)
T3 sequence (Q96SW2 whole entry partner): as the sequence (Q96SW2 whole entry) above
T3 sequence (Q16531 2-1140 partner limits assumed): as the sequence (Q16531 2-1140 partner limits assumed) above
T3 sequence (Q13422 whole entry): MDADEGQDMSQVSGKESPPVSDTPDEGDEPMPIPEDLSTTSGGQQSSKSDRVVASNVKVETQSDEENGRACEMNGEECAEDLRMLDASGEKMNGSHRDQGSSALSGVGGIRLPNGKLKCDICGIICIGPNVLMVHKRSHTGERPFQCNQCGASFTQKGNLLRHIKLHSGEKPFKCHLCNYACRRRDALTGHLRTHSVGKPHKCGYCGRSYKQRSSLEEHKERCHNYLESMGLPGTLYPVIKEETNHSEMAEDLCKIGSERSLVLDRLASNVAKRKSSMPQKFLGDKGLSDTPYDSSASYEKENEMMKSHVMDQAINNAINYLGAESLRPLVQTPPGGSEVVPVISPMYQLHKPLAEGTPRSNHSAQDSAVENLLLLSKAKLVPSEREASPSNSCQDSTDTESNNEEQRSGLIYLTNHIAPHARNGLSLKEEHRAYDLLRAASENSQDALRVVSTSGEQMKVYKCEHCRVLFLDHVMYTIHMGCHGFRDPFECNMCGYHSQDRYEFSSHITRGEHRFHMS
Method: MM1S cells were purchased from ATCC (cat. Number CRL-2974), sub-cultured in 90% RPMI 1640 with 10% FBS, supplemented with 1×P/S and incubated at 37° C., 5% CO2. Compounds were stored as 10 mM DMSO stock. For the assay, MM1S cells (3 million cells/well) were plated in 6-well plates and incubated over night. Cells were treated with respective compounds using a serial dilution: 0.3 μM, 3 μM and 30 μM as well as a vehicle only (DMSO) control for 6 hours. Media with suspension cells was subsequently transferred to 15 mL conical tubes, wells rinsed twice with ice-cold PBS and merged with cell suspension in respective 15 mL conical tube. Cells were spinned down, supernatant aspirated, pellets resuspended in ice-cold PBS and transferred to microtubes. Cells were spinned down, supernatant aspirated and pellets resuspended in 120 μL RIPA lysis buffer supplemented with protease and phosphatase inhibitors. Cell lysates were incubated on ice for 20 minutes followed by centrifugation at >20,000×g for 5 min. Supernatants were transferred to fresh microtubes and stored at −80° C. Total protein concentration was determined using a BCA assay with a BSA standard curve and concentration of all samples was adjusted to 1 mg/mL. 25 μL 4×LDS sample buffer supplemented with 100 mM DTT was added to 75 μL sample. Samples were centrifuged (8,000×g, 1 min) and incubated at 95° C. for 5 min followed by another centrifugation step (8,000×g, 1 min). 20 μL of each sample was loaded on a 4-12% gel alongside a protein molecular weight marker. Gels were run in the presence of MOPS buffer at 80 Volts for 30 min, followed by 120 Volts for 1.5 h and proteins subsequently transferred onto nitrocellulose membranes at 20 Volts for 7 min using an iBlot2 Gel Transfer Device. Membranes were then cut horizontally into two pieces, covering 80-50 kDa and 50-25 kDa. Blocking the membranes was performed by gently shaking in 5% (w/v) skim milk in TSB-T for 1 hr at room temperature. All primary antibodies were used at a 1/1000 in 5% (w/v) BSA dissolved in TBST and incubated with membranes over night at 4° C. Anti-IKZF1 (Ikaros; D6N9Y; 14859S), anti-IKZF3 (Aiolos; D1C1E; 15103S) antibodies were purchased from Cell Signalling Technology, anti-ZFP91 antibody from Bethyl laboratories, anti-GSPT1 from Sigma Aldrich (HPA052488) and anti CK1alpha from AbCam (ab206652). After three washes with 1×TBST for 5 min, HRP-coupled secondary antibodies diluted in 5% (w/v) BSA/TBST (Goat Anti-Rb IgG, dil. 1/10,000; Goat Anti-Mouse IgG, dil. 1/5000) were added for 1 hr at room temperature. After three washes with 1×TBST (5 minutes each), membranes were incubated with ECL reagent for 1 min at room temperature. Chemiluminescence signals were then detected using a LAS-4000 system with default settings and signals quantified using Image Studio Lite software (version 5.2). Membrane parts previously incubated with antibody against CK1alpha were stripped off antibodies by incubating with stripping buffer for 30 minutes followed by three washed with TBST (5 min each), blocking with 5% (w/v) skim milk for 1 hr, and incubation with primary antibody against GAPDH overnight at 4° C. Subsequent washes, incubation with secondary antibody and signal acquisition were performed as described above.

[5] = tested on: NCI-H1155 cells (human non small cell lung cancer); assay: NCI-H1155 xenograft study; assay type: in vivo, BALB/c nude mice
Method: For the NCI-H1155 xenograft study, cells (human non small cell lung cancer, ATCC CRL-5818) were maintained in vitro as suspension culture in ATCC-formulated DMEM:F12 Medium supplemented as recommended by the provider and kept at 37° C. in an atmosphere of 5% CO2 in air. Cells (0.5 millions) were resuspended in 0.2 mL of PBS with Matrigel (50:50) and inoculated into female BALB/c nude mice, 6-8 weeks old, and allowed to grow to 150 mm^3 in size. Mice were dosed orally with either vehicle or compound 10 at 1 or 3 mg per kilogram daily (filled squares and filled triangles, respectively) or 6 mg per kilogram for 5 continuous days followed by 9 days treatment holidays (5 On-9 off) (filled inverted triangles). Compound formulations were prepared fresh daily in 5% vDMSO/95%(30% w/v HP-β-CD in water). Gemcitabine dosed at 40 mg per kilogram, IP, Q4Dx5 was used as a positive control (filled rhombi). For this study, mice were dosed for 21 days with tumor volumes measured every 3 days.

GSPT1 [6] = molecular target: T1, GSPT1; assay: GSPT1 degradation in ABC-1 cells; assay type: cell-based; set-up: endogenous in cells
Method: as §1

For `Cc1ccc(NC(=O)OCc2ccc3c(c2)C(=O)N(C2CCC(=O)NC2=O)C3)cc1Cl` (stereo not shown) [Compound 10], the “sensitivity to treatment (viability in %)” value (NCI-H1155 [1]) was “highly sensitive”, the “sensitivity to treatment (viability in %)” value (ABC-1) was “highly sensitive” and the “extent of GSPT1 degradation” value (GSPT1 [2]) was “complete degradation”. The “tumor growth (tumor volume)” value (NCI-H1155 [3]; 1 mg/kg once daily, PO) was “tumor growth was suppressed for two weeks”, the “tumor size (tumor volume)” value (NCI-H1155 [3]; 3 mg/kg once daily, PO) was “tumor size decreased, became undetectable by day eight and remained so until the end of the study at day 21” and the “tumor size (tumor volume)” value (NCI-H1155 [3]; 6 mg/kg PO, five days on and nine days off) was “tumor size decreased, became undetectable by day eight and remained so until the end of the study at day 21”. The body weight (NCI-H1155 [3]; oral administration, NCI-H1155 xenograft) was “no body weight loss observed”, the “tumor growth (tumor volume)” value (NCI-H1155 [3]; oral administration, NCI-H1155 xenograft, overall) was “tumor growth inhibition” and the “degradation of GSPT1 in tumors” value (GSPT1 [4]) was “complete degradation”. The IKZF1 degradation (IKZF1 (Ikaros)) was “A”, the “Tumor growth (FIG. 3A)” value ([5]; 1 mg/kg once daily, oral) was “tumor growth was suppressed for two weeks” and the “Tumor size (FIG. 3A)” value ([5]; 3 mg/kg once daily, oral) was “tumor size decreased, became undetectable by day eight and remained so until the end of the study at day 21”. For the same molecule, the “Tumor size (FIG. 3A)” value ([5]; 6 mg/kg dosed for five days on and nine days off, oral) was “tumor size decreased, became undetectable by day eight and remained so until the end of the study at day 21”, the body weight ([5]; oral administration, NCI-H1155 xenograft mice) was “no body weight loss observed” and the “Tumor growth (FIG. 3A)” value ([5]; oral administration, all dose groups) was “tumor growth inhibition”. For the same molecule, the “extent of GSPT1 degradation” value (GSPT1 [6]) was “complete degradation”.
